Measured values as given in PMC8565742 (PLoS Neglected Tropical Diseases, 2021).
Where two headings read alike, the source gives them in different places.

Columns and labels:
Sm.TRPMPZQ [1] = biological target: T1, Sm.TRPMPZQ (Schistosoma mansoni, UniProt A0A5K4F0X5); assay: cell-based
Protocol: HEK cells were transfected with cDNA (400μg/ml DNA) encoding Sm.TRPMPZQ using a Maxcyte STX electroporation system and incubated overnight at 37°C. This system is uniquely capabable of large scale transfections providing one batch of cells ready for large scale HTS [30]. Briefly, the HEK cells were resuspended at 10^8/ml in Maxcyte electroporation buffer. Plasmid DNA was added to the cells in buffer to achieve a concentration of 400 μg/ml from a stock of 5mg/ml (in TE buffer). This mixture was loaded into the appropriate cassette, inserted into the machine, and cells electroporated. Cells were then frozen to provide a single supply of transfected cells for all subsequent assays. On the day of the assays, cells were thawed in a 37°C waterbath, and resuspended in DMEM + 10% FBS and counted. The cells were pelleted by centrifugation at 170xg for 5 minutes. The media was aspirated, and the remaining pellet was resuspended in 1x HBSS with 20 mM HEPES and 1% DMSO to achieve 1.33x10^6cells/ml. This cell suspension was then dispensed at 3 μl/well to the 1536 well plates (Greiner Bio One part 789072) at a density of 4,000 cells/well. Measurements of fluorescence intensity (λex = 470 nm, λem = 535 nm) were made using a FLIPR (Molecular Devices FLIPR Tetra). A read of basal fluorescence values was made (5s) prior to addition of compounds or controls (30 nl). In both ‘agonist’ and ‘antagonist mode’, the total assay volume was 6μl (1% DMSO). […] Ligand performance was categorized using an algorithm based on the activity of the entire dataset to define a ‘hit-cutoff’ parameter for both agonist-mode and antagonist-mode screening. […] Titration assays were executed using the same reagents, protocols and detection systems, done as 10-point concentration-response curves, performed in triplicate. Counter-screening was performed using untransfected HEK293 cells for comparison with results testing the same compounds effect on cells expressing Sm.TRPMPZQ, with ATP used as the positive control. For each compound, activity was plotted against compound concentration and data were fitted with a sigmoidal function. […] ChemAxon (https://www.chemaxon.com) academic licensing was provided for the use of Instant JChem (ver. 15.10.12.0) to perform compound mining of the libraries utilized in this effort.

Sm.TRPMPZQ [2] = biological target: T1, Sm.TRPMPZQ; assay: cell-based; settings: for Emax: HEK293
Protocol: HEK cells were transfected with cDNA (400μg/ml DNA) encoding Sm.TRPMPZQ using a Maxcyte STX electroporation system and incubated overnight at 37°C. This system is uniquely capabable of large scale transfections providing one batch of cells ready for large scale HTS [30]. Briefly, the HEK cells were resuspended at 10^8/ml in Maxcyte electroporation buffer. Plasmid DNA was added to the cells in buffer to achieve a concentration of 400 μg/ml from a stock of 5mg/ml (in TE buffer). This mixture was loaded into the appropriate cassette, inserted into the machine, and cells electroporated. Cells were then frozen to provide a single supply of transfected cells for all subsequent assays. On the day of the assays, cells were thawed in a 37°C waterbath, and resuspended in DMEM + 10% FBS and counted. The cells were pelleted by centrifugation at 170xg for 5 minutes. The media was aspirated, and the remaining pellet was resuspended in 1x HBSS with 20 mM HEPES and 1% DMSO to achieve 1.33x10^6cells/ml. […] A read of basal fluorescence values was made (5s) prior to addition of compounds or controls (30 nl). In both ‘agonist’ and ‘antagonist mode’, the total assay volume was 6μl (1% DMSO). […] Ligand performance was categorized using an algorithm based on the activity of the entire dataset to define a ‘hit-cutoff’ parameter for both agonist-mode and antagonist-mode screening. […] Titration assays were executed using the same reagents, protocols and detection systems, done as 10-point concentration-response curves, performed in triplicate. Counter-screening was performed using untransfected HEK293 cells for comparison with results testing the same compounds effect on cells expressing Sm.TRPMPZQ, with ATP used as the positive control. For each compound, activity was plotted against compound concentration and data were fitted with a sigmoidal function.

[3] = tested on: untransfected HEK293 cells; assay: Counterscreen, agonist mode, Ca2+ signal in untransfected HEK cells; assay type: cell-based; settings: for EC50: Homo sapiens, HEK293, unit inferred, read-out: HEK AG Final EC50; for EC50 / HEK AG Averaged Max % Response: counterscreen titration
Protocol: HEK cells were transfected with cDNA (400μg/ml DNA) encoding Sm.TRPMPZQ using a Maxcyte STX electroporation system and incubated overnight at 37°C. This system is uniquely capabable of large scale transfections providing one batch of cells ready for large scale HTS [30]. Briefly, the HEK cells were resuspended at 10^8/ml in Maxcyte electroporation buffer. Plasmid DNA was added to the cells in buffer to achieve a concentration of 400 μg/ml from a stock of 5mg/ml (in TE buffer). This mixture was loaded into the appropriate cassette, inserted into the machine, and cells electroporated. Cells were then frozen to provide a single supply of transfected cells for all subsequent assays. On the day of the assays, cells were thawed in a 37°C waterbath, and resuspended in DMEM + 10% FBS and counted. The cells were pelleted by centrifugation at 170xg for 5 minutes. The media was aspirated, and the remaining pellet was resuspended in 1x HBSS with 20 mM HEPES and 1% DMSO to achieve 1.33x10^6cells/ml. This cell suspension was then dispensed at 3 μl/well to the 1536 well plates (Greiner Bio One part 789072) at a density of 4,000 cells/well. Measurements of fluorescence intensity (λex = 470 nm, λem = 535 nm) were made using a FLIPR (Molecular Devices FLIPR Tetra). A read of basal fluorescence values was made (5s) prior to addition of compounds or controls (30 nl). In both ‘agonist’ and ‘antagonist mode’, the total assay volume was 6μl (1% DMSO). […] Ligand performance was categorized using an algorithm based on the activity of the entire dataset to define a ‘hit-cutoff’ parameter for both agonist-mode and antagonist-mode screening. Any compound with greater percent activation than this cutoff was assigned as ‘active’ prior to titration and counter-screening. Titration assays were executed using the same reagents, protocols and detection systems, done as 10-point concentration-response curves, performed in triplicate. Counter-screening was performed using untransfected HEK293 cells for comparison with results testing the same compounds effect on cells expressing Sm.TRPMPZQ, with ATP used as the positive control. For each compound, activity was plotted against compound concentration and data were fitted with a sigmoidal function. In order to be considered a hit at this stage a compound must achieve a EC50<5 μM for agonists and IC50 <5 μM for antagonists. All compounds selected for titration were subjected to LC-MS analysis to confirm mass and sample purity. ChemAxon (https://www.chemaxon.com) academic licensing was provided for the use of Instant JChem (ver. 15.10.12.0) to perform compound mining of the libraries utilized in this effort.

[4] = S2 Table, titration, listed as SR-01000003100-3
[5] = S2 Table, titration, listed as SR-01000003100-19

T1 sequence (A0A5K4F0X5 entry or part of it): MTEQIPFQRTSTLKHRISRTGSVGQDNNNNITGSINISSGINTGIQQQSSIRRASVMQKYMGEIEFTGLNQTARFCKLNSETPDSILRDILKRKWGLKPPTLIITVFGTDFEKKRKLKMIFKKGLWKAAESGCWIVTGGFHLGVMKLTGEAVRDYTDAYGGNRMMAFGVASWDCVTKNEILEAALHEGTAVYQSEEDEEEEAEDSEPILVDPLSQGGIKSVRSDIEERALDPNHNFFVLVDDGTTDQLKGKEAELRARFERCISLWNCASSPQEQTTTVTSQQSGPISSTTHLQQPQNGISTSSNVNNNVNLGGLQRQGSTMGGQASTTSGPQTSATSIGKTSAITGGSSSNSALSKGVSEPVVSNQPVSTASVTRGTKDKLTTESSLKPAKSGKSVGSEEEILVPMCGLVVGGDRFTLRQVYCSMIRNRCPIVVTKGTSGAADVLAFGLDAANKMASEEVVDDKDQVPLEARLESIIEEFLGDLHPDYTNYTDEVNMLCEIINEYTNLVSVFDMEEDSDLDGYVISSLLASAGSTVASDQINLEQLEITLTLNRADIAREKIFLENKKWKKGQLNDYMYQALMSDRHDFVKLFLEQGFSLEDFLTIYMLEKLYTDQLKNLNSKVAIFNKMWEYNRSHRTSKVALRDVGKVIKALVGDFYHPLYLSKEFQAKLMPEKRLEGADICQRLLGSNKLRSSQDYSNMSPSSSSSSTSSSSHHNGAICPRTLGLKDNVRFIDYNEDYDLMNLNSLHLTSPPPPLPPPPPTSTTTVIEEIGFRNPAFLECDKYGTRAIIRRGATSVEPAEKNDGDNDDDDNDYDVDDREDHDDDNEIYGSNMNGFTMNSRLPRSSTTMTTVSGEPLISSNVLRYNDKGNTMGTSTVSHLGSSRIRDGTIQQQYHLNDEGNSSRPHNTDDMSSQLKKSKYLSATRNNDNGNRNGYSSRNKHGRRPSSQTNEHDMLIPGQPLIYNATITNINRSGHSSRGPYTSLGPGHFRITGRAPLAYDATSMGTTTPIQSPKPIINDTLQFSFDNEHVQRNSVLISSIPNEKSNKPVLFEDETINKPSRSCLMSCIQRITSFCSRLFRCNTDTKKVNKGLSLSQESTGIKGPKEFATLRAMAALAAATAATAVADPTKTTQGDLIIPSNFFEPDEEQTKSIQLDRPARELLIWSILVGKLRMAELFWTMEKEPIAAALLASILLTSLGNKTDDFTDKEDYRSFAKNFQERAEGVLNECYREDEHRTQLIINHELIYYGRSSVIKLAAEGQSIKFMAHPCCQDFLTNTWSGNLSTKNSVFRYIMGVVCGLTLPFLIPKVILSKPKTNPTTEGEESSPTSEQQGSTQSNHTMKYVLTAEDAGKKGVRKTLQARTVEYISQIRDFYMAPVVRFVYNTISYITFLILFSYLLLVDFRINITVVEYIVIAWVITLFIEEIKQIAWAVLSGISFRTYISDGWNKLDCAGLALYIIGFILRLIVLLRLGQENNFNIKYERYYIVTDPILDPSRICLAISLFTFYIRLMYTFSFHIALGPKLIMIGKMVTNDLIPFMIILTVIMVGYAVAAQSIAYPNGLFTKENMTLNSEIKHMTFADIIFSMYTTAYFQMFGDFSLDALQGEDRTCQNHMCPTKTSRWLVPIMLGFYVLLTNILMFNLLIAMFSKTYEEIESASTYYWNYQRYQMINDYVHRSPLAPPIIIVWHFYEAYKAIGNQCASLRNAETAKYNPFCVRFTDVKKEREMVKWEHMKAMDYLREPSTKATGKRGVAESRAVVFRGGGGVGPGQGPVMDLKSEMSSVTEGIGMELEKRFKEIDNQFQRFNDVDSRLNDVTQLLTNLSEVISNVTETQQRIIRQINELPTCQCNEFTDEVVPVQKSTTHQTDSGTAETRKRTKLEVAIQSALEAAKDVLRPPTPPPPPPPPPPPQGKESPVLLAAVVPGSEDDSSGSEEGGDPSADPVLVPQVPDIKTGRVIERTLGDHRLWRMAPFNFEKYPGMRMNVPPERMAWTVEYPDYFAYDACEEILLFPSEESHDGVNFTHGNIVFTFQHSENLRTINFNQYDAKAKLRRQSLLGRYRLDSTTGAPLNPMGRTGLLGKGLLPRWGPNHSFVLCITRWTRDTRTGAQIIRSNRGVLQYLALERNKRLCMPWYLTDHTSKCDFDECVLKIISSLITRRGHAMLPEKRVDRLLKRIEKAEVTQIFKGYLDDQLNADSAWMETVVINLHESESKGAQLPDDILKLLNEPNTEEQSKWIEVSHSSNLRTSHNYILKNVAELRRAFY

COc1ccc(-c2nnc3ccc(-c4cccc(C(C)C)c4)cn23)cc1OC [AG1, 3-(3,4-Dimethoxyphenyl)-6-(3-propan-2-ylphenyl)-[1,2,4]triazolo[4,3-a]pyridine]
Emax (Sm.TRPMPZQ [1]; HEK293, S2 Table, titration, read-out: Sm.TRPMPZQ AG Averaged Max % Response): 97.5% | activation at 5 µM (Sm.TRPMPZQ [1]; HEK293, read-out: Bmax, activation in primary screen): 93.9 ± 5.6% | EC50 (Sm.TRPMPZQ [1]; S2 Table, 10-point titration in triplicate, unit inferred, read-out: Sm.TRPMPZQ AG Final EC50): 1560 nM | Sm.TRPMPZQ AG Hill Slope (Sm.TRPMPZQ [1]; S2 Table, titration): 1.659 | agonist efficacy (Sm.TRPMPZQ [1]; concentration-response curve analysis): full agonist | EC50 (Sm.TRPMPZQ [1]; concentration-response of library sample, Ca2+ flux, read-out: EC50): 1600 ± 300 nM | EC50 (Sm.TRPMPZQ [1]; re-sourced, independently procured sample, read-out: EC50): 9200 nM | Emax (Sm.TRPMPZQ [2]; S2 Table, antagonist mode titration, read-out: Sm.TRPMPZQ Averaged Max % Response): 109% | EC50 (Sm.TRPMPZQ [2]; S2 Table, 10-point titration in triplicate, unit inferred, read-out: Sm.TRPMPZQ ANT Final EC50): 571 nM | Sm.TRPMPZQ ANT Hill Slope (Sm.TRPMPZQ [2]; S2 Table, titration): 2.322 | EC50 ([3]; S2 Table): > 12400 nM | HEK AG Averaged Max % Response ([3]; S2 Table): 8.295% | activity on counter-screening in naïve HEK cells ([3]; concentration-response): no activity

O=C(C1CCCCC1)N1CC(=O)N2CCc3ccccc3C2C1 (stereo not shown) [PZQ, praziquantel, reference compound]
Emax (Sm.TRPMPZQ [1]; HEK293, read-out: Sm.TRPMPZQ AG Averaged Max % Response, S2 Table, titration): 80.3% | Sm.TRPMPZQ AG Hill Slope (Sm.TRPMPZQ [1]; [4]): 1.753 | Sm.TRPMPZQ AG Averaged Max % Response (Sm.TRPMPZQ [1]; [5]): 90.5499% | Sm.TRPMPZQ AG Hill Slope (Sm.TRPMPZQ [1]; [5]): 1.657 | Sm.TRPMPZQ ANT Hill Slope (Sm.TRPMPZQ [2]; [4]): 1.74 | EC50 ([3]; S2 Table): > 12400 nM | HEK AG Averaged Max % Response ([3]; S2 Table, listed as SR-01000003100-3): 2.271% | HEK AG Averaged Max % Response ([3]; S2 Table, listed as SR-01000003100-19): 17.5496% | change in basal fluorescence ([3]; ≤30 μM, untransfected HEK293 cells): failed to elicit any change in basal fluorescence

Cc1onc(-c2ccccc2)c1C(=O)N1CCN(C2c3ccccc3-c3ccccc32)CC1 [ANT1, 1-(9H-fluoren-9-yl)-4-(5-methyl-3-phenyl-1,2-oxazole-4-carbonyl)piperazine]
Emax (Sm.TRPMPZQ [1]; HEK293, S3 Table, titration, read-out: Sm.TRPMPZQ AG Averaged Max % Response): 11.6% | EC50 (Sm.TRPMPZQ [1]; S3 Table, 10-point titration in triplicate, unit inferred, read-out: Sm.TRPMPZQ AG Final EC50): > 12400 nM | Emax (Sm.TRPMPZQ [2]; S3 Table, titration, read-out: Sm.TRPMPZQ ANT Averaged Max % Response): 105% | IC50 (Sm.TRPMPZQ [2]; read-out: IC50, block of PZQ-evoked Ca2+ signals): 1300 ± 300 nM | EC50 ([3]; S3 Table): > 12400 nM | HEK AG Averaged Max % Response ([3]; S3 Table): 25.3604%
